In brackets after ≈: the same amount, converted by molar mass.
Tested on: Escherichia coli
Assay: minimum inhibitory concentration (MIC)
Protocol: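 Broth microdilution MIC (Sensititre BOPO7F bovine plate, CLSI methods) of 19 antimicrobials against field isolates of P. multocida, M. haemolytica, H. somni (deep nasopharyngeal swabs) and E. coli, Enterococcus spp. (rectal swabs) from weaned dairy heifers. Incubation 16-24 h at 35 C. MIC is the lowest concentration preventing visible growth. Values with <= or > lie at the tested range limits. Trimethoprim-sulfamethoxazole is given as the trimethoprim component of a 1:19 mixture.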

CNC(C)C1CCC(N)C(OC2C(N)CC(N)C(OC3OCC(C)(O)C(NC)C3O)C2O)O1 (stereo not given) [Gentamicin]
Conditions | minimum inhibitory concentration [µg/mL]
isolate (source animal id): 8 | ≤ 1
isolate (source animal id): 9 | ≤ 1
isolate (source animal id): 10 | ≤ 1
isolate (source animal id): 11 | ≤ 1
isolate (source animal id): 12 | ≤ 1
isolate (source animal id): 13 | ≤ 1
isolate (source animal id): 14 | ≤ 1
isolate (source animal id): 15 | ≤ 1
isolate (source animal id): 16 | ≤ 1
isolate (source animal id): 98 | ≤ 1
isolate (source animal id): 99 | ≤ 1
isolate (source animal id): 100 | ≤ 1
isolate (source animal id): 101 | ≤ 1
isolate (source animal id): 102 | ≤ 1
isolate (source animal id): 103 | ≤ 1
isolate (source animal id): 104 | ≤ 1
isolate (source animal id): 105 | ≤ 1
isolate (source animal id): 106 | ≤ 1
isolate (source animal id): 107 | ≤ 1
isolate (source animal id): 108 | ≤ 1
isolate (source animal id): 109 | ≤ 1
isolate (source animal id): 110 | ≤ 1
isolate (source animal id): 111 | ≤ 1
isolate (source animal id): 112 | ≤ 1
isolate (source animal id): 113 | ≤ 1
isolate (source animal id): 114 | ≤ 1
isolate (source animal id): 115 | ≤ 1
isolate (source animal id): 116 | ≤ 1
isolate (source animal id): 117 | ≤ 1
isolate (source animal id): 118 | ≤ 1
isolate (source animal id): 119 | ≤ 1
isolate (source animal id): 120 | ≤ 1
isolate (source animal id): 121 | ≤ 1
isolate (source animal id): 122 | 8 (≈ 16.8 µM)
isolate (source animal id): 123 | ≤ 1
isolate (source animal id): 124 | 2 (≈ 4.19 µM)
isolate (source animal id): 125 | ≤ 1
isolate (source animal id): 126 | ≤ 1
isolate (source animal id): 127 | ≤ 1
isolate (source animal id): 128 | ≤ 1
isolate (source animal id): 129 | ≤ 1
isolate (source animal id): 130 | ≤ 1
isolate (source animal id): 131 | ≤ 1
isolate (source animal id): 132 | ≤ 1
isolate (source animal id): 133 | ≤ 1
isolate (source animal id): 134 | ≤ 1
isolate (source animal id): 135 | ≤ 1
isolate (source animal id): 136 | ≤ 1
isolate (source animal id): 137 | ≤ 1
isolate (source animal id): 138 | ≤ 1
isolate (source animal id): 139 | ≤ 1
isolate (source animal id): 140 | ≤ 1
isolate (source animal id): 141 | ≤ 1
isolate (source animal id): 142 | ≤ 1
isolate (source animal id): 143 | ≤ 1
isolate (source animal id): 144 | ≤ 1
isolate (source animal id): 145 | ≤ 1
isolate (source animal id): 146 | ≤ 1
isolate (source animal id): 147 | ≤ 1
isolate (source animal id): 148 | ≤ 1
isolate (source animal id): 149 | ≤ 1
isolate (source animal id): 150 | ≤ 1
isolate (source animal id): 151 | ≤ 1
isolate (source animal id): 152 | ≤ 1
isolate (source animal id): 153 | ≤ 1
isolate (source animal id): 154 | ≤ 1
isolate (source animal id): 155 | ≤ 1
isolate (source animal id): 156 | ≤ 1
isolate (source animal id): 157 | ≤ 1
isolate (source animal id): 158 | ≤ 1
isolate (source animal id): 159 | ≤ 1
isolate (source animal id): 160 | ≤ 1
isolate (source animal id): 161 | ≤ 1
isolate (source animal id): 162 | ≤ 1
isolate (source animal id): 163 | ≤ 1
isolate (source animal id): 164 | ≤ 1
isolate (source animal id): 165 | ≤ 1
isolate (source animal id): 166 | ≤ 1
isolate (source animal id): 167 | ≤ 1
isolate (source animal id): 168 | ≤ 1
isolate (source animal id): 169 | ≤ 1
isolate (source animal id): 170 | ≤ 1
isolate (source animal id): 171 | ≤ 1
isolate (source animal id): 172 | ≤ 1
isolate (source animal id): 173 | ≤ 1
isolate (source animal id): 174 | ≤ 1
isolate (source animal id): 175 | ≤ 1
isolate (source animal id): 176 | ≤ 1
isolate (source animal id): 177 | ≤ 1
isolate (source animal id): 178 | ≤ 1
isolate (source animal id): 179 | ≤ 1
isolate (source animal id): 180 | 4 (≈ 8.38 µM)
isolate (source animal id): 181 | ≤ 1
isolate (source animal id): 182 | ≤ 1
isolate (source animal id): 183 | ≤ 1
isolate (source animal id): 184 | ≤ 1
isolate (source animal id): 185 | ≤ 1
isolate (source animal id): 186 | ≤ 1
isolate (source animal id): 187 | 8 (≈ 16.8 µM)
isolate (source animal id): 188 | ≤ 1

CC[C@H]1OC(=O)C[C@@H](O)[C@H](C)[C@@H](O[C@@H]2O[C@H](C)[C@@H](O)[C@H](N(C)C)[C@H]2O)[C@@H](CCN2C[C@H](C)C[C@H](C)C2)C[C@@H](C)C(=O)/C=C/C(C)=C/[C@@H]1CO[C@@H]1O[C@H](C)[C@@H](O)[C@@H](OC)[C@H]1OC [Tilmicosin]
Conditions | minimum inhibitory concentration [µg/mL]
isolate (source animal id): 8 | > 16
isolate (source animal id): 9 | > 16
isolate (source animal id): 10 | > 16
isolate (source animal id): 11 | > 16
isolate (source animal id): 12 | > 16
isolate (source animal id): 13 | > 16
isolate (source animal id): 14 | > 16
isolate (source animal id): 15 | > 16
isolate (source animal id): 16 | > 16
isolate (source animal id): 98 | > 16
isolate (source animal id): 99 | > 16
isolate (source animal id): 100 | > 16
isolate (source animal id): 101 | > 16
isolate (source animal id): 102 | > 16
isolate (source animal id): 103 | > 16
isolate (source animal id): 104 | > 16
isolate (source animal id): 105 | > 16
isolate (source animal id): 106 | > 16
isolate (source animal id): 107 | > 16
isolate (source animal id): 108 | > 16
isolate (source animal id): 109 | > 16
isolate (source animal id): 110 | > 16
isolate (source animal id): 111 | > 16
isolate (source animal id): 112 | > 16
isolate (source animal id): 113 | > 16
isolate (source animal id): 114 | > 16
isolate (source animal id): 115 | > 16
isolate (source animal id): 116 | > 16
isolate (source animal id): 117 | > 16
isolate (source animal id): 118 | > 16
isolate (source animal id): 119 | > 16
isolate (source animal id): 120 | > 16
isolate (source animal id): 121 | > 16
isolate (source animal id): 122 | > 16
isolate (source animal id): 123 | > 16
isolate (source animal id): 124 | > 16
isolate (source animal id): 125 | 16 (≈ 18.4 µM)
isolate (source animal id): 126 | > 16
isolate (source animal id): 127 | > 16
isolate (source animal id): 128 | > 16
isolate (source animal id): 129 | > 16
isolate (source animal id): 130 | > 16
isolate (source animal id): 131 | > 16
isolate (source animal id): 132 | > 16
isolate (source animal id): 133 | > 16
isolate (source animal id): 134 | > 16
isolate (source animal id): 135 | > 16
isolate (source animal id): 136 | > 16
isolate (source animal id): 137 | > 16
isolate (source animal id): 138 | > 16
isolate (source animal id): 139 | > 16
isolate (source animal id): 140 | > 16
isolate (source animal id): 141 | > 16
isolate (source animal id): 142 | > 16
isolate (source animal id): 143 | > 16
isolate (source animal id): 144 | > 16
isolate (source animal id): 145 | > 16
isolate (source animal id): 146 | > 16
isolate (source animal id): 147 | > 16
isolate (source animal id): 148 | > 16
isolate (source animal id): 149 | > 16
isolate (source animal id): 150 | > 16
isolate (source animal id): 151 | > 16
isolate (source animal id): 152 | > 16
isolate (source animal id): 153 | > 16
isolate (source animal id): 154 | > 16
isolate (source animal id): 155 | > 16
isolate (source animal id): 156 | > 16
isolate (source animal id): 157 | > 16
isolate (source animal id): 158 | > 16
isolate (source animal id): 159 | > 16
isolate (source animal id): 160 | > 16
isolate (source animal id): 161 | > 16
isolate (source animal id): 162 | > 16
isolate (source animal id): 163 | > 16
isolate (source animal id): 164 | > 16
isolate (source animal id): 165 | > 16
isolate (source animal id): 166 | > 16
isolate (source animal id): 167 | > 16
isolate (source animal id): 168 | > 16
isolate (source animal id): 169 | > 16
isolate (source animal id): 170 | > 16
isolate (source animal id): 171 | > 16
isolate (source animal id): 172 | > 16
isolate (source animal id): 173 | > 16
isolate (source animal id): 174 | > 16
isolate (source animal id): 175 | > 16
isolate (source animal id): 176 | > 16
isolate (source animal id): 177 | > 16
isolate (source animal id): 178 | > 16
isolate (source animal id): 179 | > 16
isolate (source animal id): 180 | > 16
isolate (source animal id): 181 | > 16
isolate (source animal id): 182 | > 16
isolate (source animal id): 183 | > 16
isolate (source animal id): 184 | > 16
isolate (source animal id): 185 | > 16
isolate (source animal id): 186 | > 16
isolate (source animal id): 187 | > 16
isolate (source animal id): 188 | > 16

— the supplement of paper PMC8612539
